Laboratory results reported in paper PMC6028563, “Probing Substituents in the 1- and 3-Position: Tetrahydropyrazino-Annelated Water-Soluble Xanthine Derivatives as Multi-Target Drugs With Potent Adenosine Receptor Antagonistic Activity” (Frontiers in Chemistry, 2018).

Assays:
[1] = biological target: T1, rat A2A AR (Rattus norvegicus, UniProt P30543); assay: Radioligand binding assay at rat A2A AR (rat brain striatum) vs. [^3H]MSX-2; conditions: rat (r); for Ki: rat brain striatum, n = 3, read-out: Ki ± SEM, A2A vs. [^3H]MSX-2; for % inhibition of radioligand binding at indicated concentration, A2A vs. [^3H]MSX-2: at 1,000 nM
T1 construct: A2A ARs of rat brain striatal membrane preparations; from tissue; host or cells: rat brain striatum membranes
T1 sequence (P30543 whole entry): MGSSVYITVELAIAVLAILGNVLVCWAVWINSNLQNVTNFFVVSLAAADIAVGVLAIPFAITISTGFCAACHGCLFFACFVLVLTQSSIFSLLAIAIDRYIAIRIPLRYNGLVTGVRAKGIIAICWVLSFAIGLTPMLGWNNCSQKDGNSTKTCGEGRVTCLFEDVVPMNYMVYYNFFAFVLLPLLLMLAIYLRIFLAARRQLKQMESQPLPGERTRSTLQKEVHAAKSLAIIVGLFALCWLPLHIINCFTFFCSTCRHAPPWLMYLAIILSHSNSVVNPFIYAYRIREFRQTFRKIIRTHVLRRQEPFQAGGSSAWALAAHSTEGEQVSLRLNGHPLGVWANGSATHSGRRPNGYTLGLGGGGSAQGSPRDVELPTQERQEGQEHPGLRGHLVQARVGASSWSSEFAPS
Summary of the method: (§1)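 Rat A1 affinity was measured on cortical membranes and rat A2A on striatal membranes from rat brain. Human A1, A2A, A2B and A3 subtypes were tested on membranes of CHO cells recombinantly expressing each receptor. No functional assays were run, as these xanthine-type compounds act only as blockers.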

[2] = biological target: T2, human A3 AR (Homo sapiens, UniProt P0DMS8); assay: Radioligand binding assay at human A3 AR vs. [^3H]PSB-11; conditions: for Ki: CHO cell membranes, n = 2 (n = 3 where marked a), read-out: Ki ± SEM, A3 vs. [^3H]PSB-11
T2 construct: expressed in transfected cells; host or cells: CHO cells
T2 sequence (P0DMS8 1-318): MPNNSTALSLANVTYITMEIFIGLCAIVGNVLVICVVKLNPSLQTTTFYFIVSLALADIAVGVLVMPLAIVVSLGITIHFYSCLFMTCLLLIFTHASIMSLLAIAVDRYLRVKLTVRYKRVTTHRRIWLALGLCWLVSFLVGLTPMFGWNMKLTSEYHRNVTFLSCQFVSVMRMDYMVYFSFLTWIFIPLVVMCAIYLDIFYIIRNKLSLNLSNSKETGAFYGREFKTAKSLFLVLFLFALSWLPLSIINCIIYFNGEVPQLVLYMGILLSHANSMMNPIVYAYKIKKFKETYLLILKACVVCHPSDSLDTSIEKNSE
Summary of the method: as §1

[3] = biological target: T3, human A2B AR (Homo sapiens, UniProt P29275); assay: Radioligand binding assay at human A2B AR vs. [^3H]PSB-603; conditions: for Ki: CHO cell membranes, n = 2 (n = 3 where marked a), read-out: Ki ± SEM, A2B vs. [^3H]PSB-603; for inhibition at 1 µM: at 1,000 nM, read-out: % inhibition of radioligand binding at indicated concentration, A2B vs. [^3H]PSB-603
T3 construct: expressed in transfected cells; host or cells: CHO cells
T3 sequence (P29275 1-332): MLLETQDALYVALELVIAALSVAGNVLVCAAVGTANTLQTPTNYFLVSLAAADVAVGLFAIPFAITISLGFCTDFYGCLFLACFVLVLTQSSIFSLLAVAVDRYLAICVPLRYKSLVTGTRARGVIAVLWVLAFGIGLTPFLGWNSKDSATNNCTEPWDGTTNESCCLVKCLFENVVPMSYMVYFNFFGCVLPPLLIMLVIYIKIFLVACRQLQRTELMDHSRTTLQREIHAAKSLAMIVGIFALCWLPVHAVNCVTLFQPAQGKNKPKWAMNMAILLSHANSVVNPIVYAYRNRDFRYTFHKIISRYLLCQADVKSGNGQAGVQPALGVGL
Summary of the method: as §1

[4] = biological target: T4, rat A1 AR (Rattus norvegicus, UniProt P25099); assay: Radioligand binding assay at rat A1 AR (rat brain cortex) vs. [^3H]CCPA; conditions: rat (r); rat brain cortex; n = 3
T4 construct: A1 ARs of rat brain cortical membrane; from tissue; host or cells: rat brain cortex membranes
T4 sequence (P25099 1-326): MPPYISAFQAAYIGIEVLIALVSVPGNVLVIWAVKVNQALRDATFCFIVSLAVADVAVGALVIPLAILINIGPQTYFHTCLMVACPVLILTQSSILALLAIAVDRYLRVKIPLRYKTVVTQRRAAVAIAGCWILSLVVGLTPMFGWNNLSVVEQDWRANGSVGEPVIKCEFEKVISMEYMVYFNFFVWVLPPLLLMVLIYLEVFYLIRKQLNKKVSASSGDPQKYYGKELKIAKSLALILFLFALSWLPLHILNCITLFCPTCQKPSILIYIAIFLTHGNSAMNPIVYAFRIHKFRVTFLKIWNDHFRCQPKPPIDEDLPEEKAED
Summary of the method: as §1

[5] = biological target: T5, recombinant human MAO-B (Homo sapiens, UniProt P27338); assay: Monoamine oxidase assay (Amplex Red), MAO-B; format: biochemical; conditions: for IC50: n = 3, read-out: IC50 ± SEM, Human MAO-B; for inhibition at 10 µM: at 10,000 nM (10 μM), read-out: % inhibition at indicated concentration, Human MAO-B
T5 construct: purchased Sigma-Aldrich M7441; host or cells: baculovirus-infected insect cells
T5 sequence (P27338 1-520): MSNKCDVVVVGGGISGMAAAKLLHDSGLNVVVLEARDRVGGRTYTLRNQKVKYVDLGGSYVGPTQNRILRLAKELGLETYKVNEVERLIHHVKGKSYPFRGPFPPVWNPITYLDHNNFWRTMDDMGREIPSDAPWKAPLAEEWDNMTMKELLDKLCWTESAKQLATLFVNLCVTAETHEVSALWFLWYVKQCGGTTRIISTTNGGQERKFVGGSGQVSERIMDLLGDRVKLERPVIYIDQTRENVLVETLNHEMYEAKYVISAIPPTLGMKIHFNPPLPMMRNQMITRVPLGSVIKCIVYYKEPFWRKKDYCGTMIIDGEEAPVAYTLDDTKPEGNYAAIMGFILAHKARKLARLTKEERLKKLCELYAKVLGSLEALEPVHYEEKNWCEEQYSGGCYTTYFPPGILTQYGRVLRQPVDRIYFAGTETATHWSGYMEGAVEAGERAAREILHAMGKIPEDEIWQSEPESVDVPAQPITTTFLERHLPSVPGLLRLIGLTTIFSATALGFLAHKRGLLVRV
Summary of the method: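 Recombinant human MAO-A and MAO-B, expressed in baculovirus-infected insect cells, were assayed by Amplex Red fluorometric detection. Rat MAO-B inhibition used mitochondria-enriched fractions from male Sprague Dawley rat liver.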

[6] = biological target: T6, recombinant human MAO-A (Homo sapiens, UniProt P21397); assay: Monoamine oxidase assay (Amplex Red), MAO-A; format: biochemical; conditions: for inhibition at 10 µM: at 10,000 nM, read-out: % inhibition at indicated concentration, Human MAO-A; for IC50: n = 3, read-out: IC50 ± SEM, Human MAO-A
T6 construct: purchased Sigma-Aldrich M7316; host or cells: baculovirus-infected insect cells
T6 sequence (P21397 1-527): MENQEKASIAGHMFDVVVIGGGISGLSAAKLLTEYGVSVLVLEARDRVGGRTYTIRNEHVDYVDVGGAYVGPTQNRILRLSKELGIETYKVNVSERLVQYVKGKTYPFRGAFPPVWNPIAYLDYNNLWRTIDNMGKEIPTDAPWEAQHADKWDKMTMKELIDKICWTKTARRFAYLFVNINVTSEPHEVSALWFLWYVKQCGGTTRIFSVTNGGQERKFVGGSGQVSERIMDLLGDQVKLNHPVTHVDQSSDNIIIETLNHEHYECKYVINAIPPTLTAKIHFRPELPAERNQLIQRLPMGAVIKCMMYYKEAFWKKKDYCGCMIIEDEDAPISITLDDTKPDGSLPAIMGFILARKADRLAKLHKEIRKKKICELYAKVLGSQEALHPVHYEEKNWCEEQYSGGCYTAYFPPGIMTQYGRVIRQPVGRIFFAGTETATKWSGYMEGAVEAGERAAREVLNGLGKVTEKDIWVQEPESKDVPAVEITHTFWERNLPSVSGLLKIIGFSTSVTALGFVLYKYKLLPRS
Procedure: The determination of MAO-A and MAO-B inhibition was performed using commercially available recombinant human MAO-A and MAO-B enzymes expressed in baculovirus-infected insects sells (Sigma-Aldrich, M7316 and M7441) applying the commercially available Amplex® Red monoamine oxidase assay kit (Invitrogen A12214). The assays were performed as previously described. The determination of rat MAO-B inhibition was performed using mitochondrial-enriched fractions from male Sprague Dawley rat livers. […]

[7] = biological target: T7, human A1 AR (Homo sapiens, UniProt P30542); assay: Radioligand binding assay at human A1 AR vs. [^3H]CCPA; conditions: human (h); CHO cell membranes; n = 3
T7 construct: expressed in transfected cells; host or cells: CHO cells
T7 sequence (P30542 1-326): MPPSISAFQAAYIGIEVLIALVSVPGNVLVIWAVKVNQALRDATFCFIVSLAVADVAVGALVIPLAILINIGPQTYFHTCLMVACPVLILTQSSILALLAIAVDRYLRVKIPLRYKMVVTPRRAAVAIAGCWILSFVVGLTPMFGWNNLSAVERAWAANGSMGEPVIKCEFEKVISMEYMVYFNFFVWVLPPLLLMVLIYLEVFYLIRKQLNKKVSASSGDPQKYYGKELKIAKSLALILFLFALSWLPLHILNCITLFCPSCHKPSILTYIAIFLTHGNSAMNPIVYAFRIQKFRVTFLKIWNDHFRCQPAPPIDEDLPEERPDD
Procedure: (§2) Membrane preparations and radioligand binding assays at rat A1 (rat brain cortex) and rat A2A ARs (rat brain striatum) were performed as previously described (Ozola et al., [2003]; Alnouri et al., [2015]). For assays at human A1, A2A, A2B, and A3 ARs, CHO cell membranes expressing one of the human AR subtypes were used as previously reported (Klotz et al., [1998]; Alnouri et al., [2015]; De Filippo et al., [2016]).
(§3) The synthesized tetrahydropyrazino[2,1-f ]purinediones 13–20 were evaluated in radioligand binding assays for their affinity to A1 ARs of rat brain cortical membrane and to A2A ARs of rat brain striatal membrane preparations. Selected compounds were further investigated for their affinity to human A1 and A2A ARs recombinantly expressed in Chinese hamster ovary (CHO) cells. All compounds were additionally investigated for their affinity to human A2B and A3 ARs recombinantly expressed in CHO cells to determine their AR subtype selectivity. […] It is well known that all xanthine derivatives lacking a ribose moiety, including tricyclic compounds, can only block ARs, but never act as AR agonists; therefore, additional functional studies were not required. […] Potent MAO-B inhibitors were additionally investigated for inhibition of human MAO-A to assess their selectivity. Results are presented in Tables 1–6, and data of standard ligands are included for comparison.

[8] = biological target: T8, human A2A AR (Homo sapiens, UniProt P29274); assay: Radioligand binding assay at human A2A AR vs. [^3H]MSX-2; conditions: CHO cell membranes, n = 3, read-out: Ki ± SEM, A2A vs. [^3H]MSX-2
T8 construct: expressed in transfected cells; host or cells: CHO cells
T8 sequence (P29274 whole entry): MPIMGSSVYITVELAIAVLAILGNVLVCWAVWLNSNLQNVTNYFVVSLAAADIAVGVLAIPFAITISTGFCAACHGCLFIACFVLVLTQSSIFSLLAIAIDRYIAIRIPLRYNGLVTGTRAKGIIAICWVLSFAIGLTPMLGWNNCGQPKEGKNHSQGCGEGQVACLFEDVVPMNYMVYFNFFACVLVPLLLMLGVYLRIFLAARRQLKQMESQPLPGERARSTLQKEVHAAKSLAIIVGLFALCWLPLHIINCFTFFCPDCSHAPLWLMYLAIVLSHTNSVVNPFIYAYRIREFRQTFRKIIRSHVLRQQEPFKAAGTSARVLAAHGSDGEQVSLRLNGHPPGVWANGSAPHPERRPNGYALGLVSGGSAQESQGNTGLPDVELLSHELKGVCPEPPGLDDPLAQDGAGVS
Procedure: as §2, §3

Row | Compound | Ki [1] [nM] | Ki [2] [nM] | Ki [3] [nM] | inhibition at 1 µM [3] [%] | Ki [4] [nM] | IC50 [5] [nM] | inhibition at 10 µM [6] [%] | IC50 [6] [nM] | Ki [7] [nM] | inhibition at 10 µM ([2]; at 10,000 nM, read-out: % inhibition of radioligand binding at indicated concentration, A3 vs. [^3H]PSB-11) [%] | inhibition at 10 µM [5] [%] | Ki [8] [nM] | % inhibition of radioligand binding at indicated concentration, A2A vs. [^3H]MSX-2 [1] [%] | inhibition at 1 µM ([2]; at 1,000 nM, read-out: % inhibition of radioligand binding at indicated concentration, A3 vs. [^3H]PSB-11) [%]
1 | CCn1c(=O)c2c(nc3n2CCN(Cc2cc(F)cc(Cl)c2)C3)n(C)c1=O [Compound 14n, 8-(3-chloro-5-fluorobenzyl)-3-ethyl-1-methyl-6,7,8,9-tetrahydropyrazino[2,1-f]purine-2,4(1H,3H)-dione] | 981 ± 116 | 15600 | > 1000 | 1 | 36.2 ± 9.9 | 3740 | 19 | > 10000 | 298 ± 52 |  |  |  |  | 
2 | CCn1c(=O)c2c(nc3n2CCN(Cc2cc(F)cc(C(F)(F)F)c2)C3)n(C)c1=O [Compound 14p, 3-ethyl-8-(3-fluoro-5-(trifluoromethyl)benzyl)-1-methyl-6,7,8,9-tetrahydropyrazino[2,1-f]purine-2,4(1H,3H)-dione] | 801 ± 99 | > 10000 | > 1000 | 5 | 111 ± 25 | > 10000 |  |  | 330 ± 67 | 39 | 23 | 503 ± 121 |  | 
3 | CCn1c(=O)c2c(nc3n2CCN(Cc2cccc(Cl)c2)C3)n(CC)c1=O [Compound 15c, 8-(3-chlorobenzyl)-1,3-diethyl-6,7,8,9-tetrahydropyrazino[2,1-f]purine-2,4(1H,3H)-dione] | > 1000 | 5410 | > 1000 | 12 | 85.9 ± 28.6 | ≥ 10000 |  |  | 128 ± 17 |  | 47 | 2380 | 22 | 
4 | CCn1c(=O)c2c(nc3n2CCN(Cc2ccc(Br)cc2)C3)n(CC)c1=O [Compound 15e, 8-(4-bromobenzyl)-1,3-diethyl-6,7,8,9-tetrahydropyrazino[2,1-f]purine-2,4(1H,3H)-dione] | 1140 | > 1000 | > 1000 | 39 | 54 ± 9.1 | 6510 | 25 | > 10000 |  |  |  | 4420 |  | 12
5 | CCn1c(=O)c2c(nc3n2CCN(Cc2ccc(Cl)c(C(F)(F)F)c2)C3)n(CC)c1=O [Compound 15p, 8-(4-chloro-3-(trifluoromethyl)benzyl)-1,3-diethyl-6,7,8,9-tetrahydropyrazino[2,1-f]purine-2,4(1H,3H)-dione] | > 1000 | 7180 | > 1000 | 32 | 588 ± 28 |  | 6 |  | 129 ± 22 |  | 67 |  | 40 | 
